Test results as given in patent US8580965B2, “Substituted sulfonamide compounds” (Gruenenthal GmbH, priority 2006, dated 2013).

Columns and labels:
[1] = target: T1, B1R receptor of the rat (bradykinin 1 receptor) (Rattus norvegicus, UniProt P97583); experiment: FLIPR Ca2+ assay (Fluo-4) on CHO K1 cells stably transfected with the B1R gene of the rat; % activation and % inhibition at 10 μM; type: cell-based; settings: CHO K1 rB1R cells, Ca2+ inflow after 100 nM Des-Arg9-bradykinin; for inhibition at 10 µM: CHO-K1, test substance 10 μM, read-out: B1R antagonism, rat [10 μM] % inhibition
T1 construct: host or cells: CHO K1 cells (rB1R cells)
T1 sequence (P97583 1-337): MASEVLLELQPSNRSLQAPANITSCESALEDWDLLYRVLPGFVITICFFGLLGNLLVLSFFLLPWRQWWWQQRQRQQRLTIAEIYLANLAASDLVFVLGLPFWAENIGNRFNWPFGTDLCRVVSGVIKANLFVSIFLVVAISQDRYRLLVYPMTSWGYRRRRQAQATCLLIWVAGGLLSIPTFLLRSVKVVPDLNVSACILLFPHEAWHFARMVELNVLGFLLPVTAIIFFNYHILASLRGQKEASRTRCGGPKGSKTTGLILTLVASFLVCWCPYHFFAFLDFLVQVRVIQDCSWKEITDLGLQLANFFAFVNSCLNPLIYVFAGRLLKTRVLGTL
Outline: (§1)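 Fluo-4 Ca2+ flux on FLIPR in stable hB1R or rB1R CHO K1 lines, two additions. Agonism: 10 µM compound versus 0.5 nM Lys-Des-Arg9-BK (human) or 100 nM Des-Arg9-BK (rat); antagonism: same agonists applied 10 min later, suppression expressed against maximum achievable inhibition.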

[2] = target: T2, human B1R receptor (bradykinin 1 receptor) (Homo sapiens, UniProt P46663); experiment: FLIPR Ca2+ assay (Fluo-4) on CHO K1 cells stably transfected with the human B1R gene; % activation and % inhibition at 10 μM; type: cell-based; settings: CHO K1 hB1R cells, Ca2+ inflow after 0.5 nM Lys-Des-Arg9-bradykinin; for inhibition at 10 µM: CHO-K1, test substance 10 μM, read-out: B1R antagonism, human [10 μM] % inhibition
T2 construct: host or cells: CHO K1 cells (hB1R cells)
T2 sequence (P46663 1-353): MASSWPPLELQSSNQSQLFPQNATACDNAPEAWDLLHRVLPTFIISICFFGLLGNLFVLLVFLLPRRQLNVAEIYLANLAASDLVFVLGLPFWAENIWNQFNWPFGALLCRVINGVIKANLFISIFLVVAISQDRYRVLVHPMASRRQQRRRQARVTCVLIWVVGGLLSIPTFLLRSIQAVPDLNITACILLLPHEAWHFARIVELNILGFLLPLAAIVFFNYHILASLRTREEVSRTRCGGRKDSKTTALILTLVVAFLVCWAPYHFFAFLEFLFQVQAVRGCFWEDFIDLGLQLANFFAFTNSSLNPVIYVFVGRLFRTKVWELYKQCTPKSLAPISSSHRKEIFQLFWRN
Outline: as §1

Row | inhibition at 10 µM [1] | inhibition at 10 µM [2] | B1R antagonism, rat [10 μM] % inhibition ([1]; test substance 10 μM) | B1R antagonism, human [10 μM] % inhibition ([2]; test substance 10 μM) | SMILES
1 |  |  | 101.25% | 103.55% | COc1cc(C)c(S(=O)(=O)N2CCCC2COCC(=O)N2CCC(O)(c3ccc(Cl)c(C(F)(F)F)c3)CC2)c(C)c1 (centres unmarked) [Example 213, 1-(4-(4-chloro-3-(trifluormethyl)phenyl)-4-hydroxypiperidin-1-yl)-2-((1-(4-methoxy-2,6-dimethylphenylsulfonyl)pyrrolidin-2-yl)methoxy)ethanone]
2 | 101% | 97.9% |  |  | COc1cc(C)c(S(=O)(=O)N2CCCC2COCC(=O)N2CCC(O)(c3ccc(Br)cc3)CC2)c(C)c1 (centres unmarked) [Example 214, 1-(4-(4-bromophenyl)-4-hydroxypiperidin-1-yl)-2-((1-(4-methoxy-2,6-dimethylphenylsulfonyl)pyrrolidin-2-yl)methoxy)ethanone]
3 | 102% | 104% |  |  | COc1cc(C)c(S(=O)(=O)N2CCCC2COCC(=O)N2CCC(O)(c3ccccc3)CC2)c(C)c1 (centres unmarked) [Example 215, 1-(4-hydroxy-4-phenylpiperidin-1-yl)-2-((1-(4-methoxy-2,6-dimethylphenylsulfonyl)pyrrolidin-2-yl)methoxy)ethanone]
4 | 100% | 102% |  |  | COc1cc(C)c(S(=O)(=O)N2CCCC2COCC(=O)N2CCC(O)(Cc3ccccc3)CC2)c(C)c1 (centres unmarked) [Example 216, 1-(4-benzyl-4-hydroxypiperidin-1-yl)-2-((1-(4-methoxy-2,6-dimethylphenylsulfonyl)pyrrolidin-2-yl)methoxy)ethanone]
5 | 99.9% | 105% |  |  | COc1cc(C)c(S(=O)(=O)N2CCCC2COCC(=O)N2CCC(O)(c3cccc(C(F)(F)F)c3)CC2)c(C)c1 (centres unmarked) [Example 217, 1-(4-hydroxy-4-(3-(trifluoromethyl)phenyl)piperidin-1-yl)-2-((1-(4-methoxy-2,6-dimethylphenylsulfonyl)pyrrolidin-2-yl)methoxy)ethanone]
6 | 102% | 103% |  |  | O=C(COCC1CCCN1S(=O)(=O)c1c(Cl)cccc1Cl)N1CCC(O)(c2ccc(Cl)c(C(F)(F)F)c2)CC1 (centres unmarked) [Example 218, 1-(4-(4-chloro-3-(trifluoromethyl)phenyl)-4-hydroxypiperidin-1-yl)-2-((1-(2,6-dichlorophenylsulfonyl)pyrrolidin-2-yl)methoxy)ethanone]
7 | 101% | 102% |  |  | O=C(COCC1CCCN1S(=O)(=O)c1c(Cl)cccc1Cl)N1CCC(O)(c2ccc(Br)cc2)CC1 (centres unmarked) [Example 219, 1-(4-(4-bromophenyl)-4-hydroxypiperidin-1-yl)-2-((1-(2,6-dichlorophenylsulfonyl)pyrrolidin-2-yl)methoxy)ethanone]
8 | 102% | 99% |  |  | O=C(COCC1CCCN1S(=O)(=O)c1c(Cl)cccc1Cl)N1CCC(O)(c2ccccc2)CC1 (centres unmarked) [Example 220, 2-((1-(2,6-dichlorophenylsulfonyl)pyrrolidin-2-yl)methoxy)-1-(4-hydroxy-4-phenylpiperidin-1-yl)ethanone]
9 | 89.5% | 23.5% |  |  | O=C(COCC1CCCN1S(=O)(=O)c1c(Cl)cccc1Cl)N1CCC(O)(Cc2ccccc2)CC1 (centres unmarked) [Example 221, 1-(4-benzyl-4-hydroxypiperidin-1-yl)-2-((1-(2,6-dichlorophenylsulfonyl)pyrrolidin-2-yl)methoxy)ethanone]
10 | 103% | 102% |  |  | O=C(COCC1CCCN1S(=O)(=O)c1c(Cl)cccc1Cl)N1CCC(O)(c2cccc(C(F)(F)F)c2)CC1 (centres unmarked) [Example 222, 2-((1-(2,6-dichlorophenylsulfonyl)pyrrolidin-2-yl)methoxy)-1-(4-hydroxy-4-(3-(trifluoromethyl)phenyl)piperidin-1-yl)ethanone]
11 | 99.5% | 15.1% |  |  | O=C(COCC1CCCN1S(=O)(=O)c1cc(Cl)sc1Cl)N1CCC(O)(c2ccc(Cl)c(C(F)(F)F)c2)CC1 (centres unmarked) [Example 223, 1-(4-(4-chloro-3-(trifluoromethyl)phenyl)-4-hydroxypiperidin-1-yl)-2-((1-(2,5-dichlorothiophen-3-ylsulfonyl)pyrrolidin-2-yl)methoxy)ethanone]
12 | 102% | 49.1% |  |  | O=C(COCC1CCCN1S(=O)(=O)c1cc(Cl)sc1Cl)N1CCC(O)(c2ccc(Br)cc2)CC1 (centres unmarked) [Example 224, 1-(4-(4-bromophenyl)-4-hydroxypiperidin-1-yl)-2-((1-(2,5-dichlorothiophen-3-ylsulfonyl)pyrrolidin-2-yl)methoxy)ethanone]
13 | 88.5% | 43.1% |  |  | O=C(COCC1CCCN1S(=O)(=O)c1cc(Cl)sc1Cl)N1CCC(O)(c2ccccc2)CC1 (centres unmarked) [Example 225, 2-((1-(2,5-dichlorothiophen-3-ylsulfonyl)pyrrolidin-2-yl)methoxy)-1-(4-hydroxy-4-phenylpiperidin-1-yl)ethanone]

Continued, compound first:

Row | SMILES | inhibition at 10 µM [1] | inhibition at 10 µM [2] | B1R antagonism, rat [10 μM] % inhibition ([1]; test substance 10 μM) | B1R antagonism, human [10 μM] % inhibition ([2]; test substance 10 μM)
14 | O=C(COCC1CCCN1S(=O)(=O)c1c(Cl)cc(Cl)cc1Cl)N1CCC(O)(c2cccnc2)CC1 (centres unmarked) [Example 204, 1-(4-hydroxy-4-(pyridin-3-yl)piperidin-1-yl)-2-((1-(2,4,6-trichlorophenylsulfonyl)pyrrolidin-2-yl)methoxy)ethanone] | 98% | 104% |  | 
15 | COc1cc(C)c(S(=O)(=O)N(CCOCC(=O)N2CCC(O)(c3ccc(Br)cc3)CC2)CC2CC2)c(C)c1C [Example 205, N-(2-(2-(4-(4-bromophenyl)-4-hydroxypiperidin-1-yl)-2-oxoethoxy)ethyl)-N-(cyclopropylmethyl)-4-methoxy-2,3,6-trimethylphenylsulfonamide] | 100% | 106% |  | 
16 | COc1cc(C)c(S(=O)(=O)N(CCOCC(=O)N2CCC(O)(c3ccccc3)CC2)CC2CC2)c(C)c1C [Example 206, N-(cyclopropylmethyl)-N-(2-(2-(4-hydroxy-4-phenylpiperidin-1-yl)-2-oxoethoxy)ethyl)-4-methoxy-2,3,6-trimethylphenylsulfonamide] | 100% | 105% |  | 
17 | COc1cc(C)c(S(=O)(=O)N(CCOCC(=O)N2CCC(O)(Cc3ccccc3)CC2)CC2CC2)c(C)c1C [Example 207, N-(2-(2-(4-benzyl-4-hydroxypiperidin-1-yl)-2-oxoethoxy)ethyl)-N-(cyclopropylmethyl)-4-methoxy-2,3,6-trimethylphenylsulfonamide] | 99.2% | 94.2% |  | 
18 | COc1cc(C)c(S(=O)(=O)N(CCOCC(=O)N2CCC(O)(c3cccc(C(F)(F)F)c3)CC2)CC2CC2)c(C)c1C [Example 208, N-(cyclopropylmethyl)-N-(2-(2-(4-hydroxy-4-(3-(trifluoromethyl)phenyl)-piperidin-1-yl)-2-oxoethoxy)ethyl)-4-methoxy-2,3,6-trimethylphenylsulfonamide] | 100% | 106% |  | 
19 | COc1cc(C)c(S(=O)(=O)N(CCOCC(=O)N2CCC(O)(c3ccc(Cl)cc3)CC2)CC(C)C)c(C)c1C [Example 209, N-(2-(2-(4-(4-chlorophenyl)-4-hydroxypiperidin-1-yl)-2-oxoethoxy)ethyl)-N-isobutyl-4-methoxy-2,3,6-trimethylphenylsulfonamide] | 100% | 105% |  | 
20 | COc1cc(C)c(S(=O)(=O)N(CCOCC(=O)N2CCC(O)(c3ccc(Br)cc3)CC2)CC(C)C)c(C)c1C [Example 210, N-(2-(2-(4-(4-bromophenyl)-4-hydroxypiperidin-1-yl)-2-oxoethoxy)ethyl)-N-isobutyl-4-methoxy-2,3,6-trimethylphenylsulfonamide] | 101% | 105% |  | 
21 | COc1cc(C)c(S(=O)(=O)N(CCOCC(=O)N2CCC(O)(Cc3ccccc3)CC2)CC(C)C)c(C)c1C [Example 211, N-(2-(2-(4-benzyl-4-hydroxypiperidin-1-yl)-2-oxoethoxy)ethyl)-N-isobutyl-4-methoxy-2,3,6-trimethylphenylsulfonamide] | 100% | 99.6% |  | 
22 | COc1cc(C)c(S(=O)(=O)N(CCOCC(=O)N2CCC(O)(c3cccc(C(F)(F)F)c3)CC2)CC(C)C)c(C)c1C [Example 212, N-(2-(2-(4-hydroxy-4-(3-(trifluoromethyl)phenyl)piperidin-1-yl)-2-oxoethoxy)ethyl)-N-isobutyl-4-methoxy-2,3,6-trimethylphenylsulfonamide] | 100% | 105% |  | 
